{"source": "patent US20050244971A1", "about": "“Transgenic plants with enhanced stress tolerance” (KOREA KUMHO PETROCHEMICAL CO., LTD., priority 2002, published 2005)", "key": {"[1]": {"system": "35S-ABF and wild type plants", "experiment": "Effect of ACC and IAA on growth of 35S-ABF versus wild type plants", "set-up": "species or system Arabidopsis thaliana", "settings": "in vivo", "from_the_text": "According to the studies, ABA-mediated inhibition of germination is negatively regulated by ethylene, whereas ethylene signaling components are required for the ABA inhibition of root growth (Beaudoin et al., 2000; Ghassemian et al., 2000). […] When exposed to progressive drought, new lateral roots take a short and tuberized form. The process, known as ‘drought rhizogenesis’, is impaired not only in the ABA deficient aba-1 and ABA-insensitive abi1-1 mutants but also in the auxin resistant axr1-3 mutant. To test whether the overexpression of ABF3 or ABF4 affected ethylene or auxin sensitivity, we compared the effects of the ethylene precursor 1-aminocyclopropane-1-carboxylic acid (ACC) and indole-3-acetic acid (IAA) on the growth of 35S-ABF and wild type plants. […] However, leaves of 35S-ABF4 plants have a tendency to have epinastic curvature when grown on plates (FIG. 4A), which is generally attributed to ethylene action under stress conditions (Jackson, 1997). […] Thus, the result implies that auxin signaling pathway(s) might have been perturbed in 35S-ABF4 plants."}, "[2]": {"system": "35S-ABF plants", "experiment": "Salt effect on germination and newly germinated seedling growth", "type": "in vivo, Arabidopsis thaliana", "procedure": "(§1) FIG. 3. […] (A) Salt effect on germination. Seeds of Ler, aba1-1, abi1-1, abi2-1, 35S-ABF3 (line A319) and 35S-ABF4 (line A405) were plated after 4 days of cold treatment on media containing 50, 100, or 150 mM NaCl, and germination (fully open cotyledons) was scored after 4 days. Experiments were done in triplicates (n=50 each), and standard errors are smaller than the symbols. (B) Salt effect on newly germinated seedling growth. Seeds of the same transgenic lines were germinated for 4 days on media containing 100 mM of NaCl, KCl or mannitol, and representative seedlings are shown. (C) Glucose response of 35S-ABF transgenic plants. Seeds were germinated and grown for 14 days on the regular growth medium or the same medium supplemented with 3% glucose or mannitol at vertical position. A319, A333, A405, and A406 indicate transgenic lines.\n(§2) High concentrations of salts inhibit the germination of Arabidopsis (Werner and Finkelstein, 1995; Leon-Kloosterziel et al., 1996; Quesada et al., 2000; Zhu, 2000). […] To test this, 35S-ABF transgenic plants were germinated on media containing various concentrations of NaCl.\n(§3) Plants were grown at 22° C. under long day condition (16 hr light/8 hr dark cycle) aseptically or on soil. […]"}, "[3]": {"system": "wild type plants", "settings": "NaCl below 100 mM; wild type (also aba1, abi1, abi2 mutants)", "procedure": "as §1, §2, §3"}, "[4]": {"system": "35S-ABF transgenic plants", "experiment": "ABA dose-response of root growth", "type": "in vivo, Arabidopsis thaliana", "settings": "ABA concentration above 5 μM", "procedure": "(§4) FIG. 2. ABA Sensitivity of 35S-ABF3 and 35S-ABF4 Plants. (A) Growth of transgenic plants on medium containing 0.5 μM ABA. Seeds were germinated and grown for 12 days. (B) Growth of transgenic plants on medium containing 0.25 μM ABA. Seeds were germinated on the medium for 3 days and representative plants are shown. (C) ABA dose-response of germination. Seeds, 6 months old after harvest and pre-chilled at 4° C. for 4 days, were germinated on media containing various concentrations of ABA, and seedlings with fully emerged radicles were counted after 3 days. Experiments were done in triplicates (n=50 each), and the bars show standard errors. (D) ABA dose-response of root growth. Seeds were germinated for 4 days on ABA-free medium and the seedlings (n=6) were transferred to media containing various concentrations of ABA. Root elongation was measured 5 days after the transfer. The experiments were performed more than four times, sometimes using different transgenic lines, and the results were consistent. The small bars represent standard errors. Transgenic lines A319 (ABF3) and A405 (ABF4) were used.\n(§5) To see the stage-specificity of ABA response, ABA dose-response was examined during and after germination. […] Likewise, root growth of the 35S-ABF transgenic lines was hypersensitive to ABA (FIG. 2D). At 0.5 μM ABA, wild type root growth was 84% of its control rate, whereas those of 35S-ABF4 and 35S-ABF3 plants were 35% and 51% of their control rates, respectively. At 1 μM ABA, root growth of the 35S-ABF4 plants reduced to 6% and the 35S-ABF3 plants to 37%. […] Wild type plants grew at 62% of the control rate at the same ABA concentration."}, "[5]": {"system": "wild type plants (Ler)", "experiment": "ABA dose-response of root growth", "type": "in vivo, Arabidopsis thaliana", "procedure": "as §4, §5"}, "[6]": {"system": "wild type plants", "experiment": "Germination and growth on ABA-containing medium", "type": "in vivo, Arabidopsis thaliana", "settings": "ABA 0.5 μM or above", "procedure": "as §4\n(§6) To test whether ABF3 or ABF4 overexpression affected ABA sensitivity, 35S-ABF3 and 35S-ABF4 transgenic plants were germinated and grown on media containing various concentrations of ABA. […]"}, "[7]": {"system": "35S-ABF plants", "experiment": "Germination and growth on ABA-containing medium", "type": "in vivo, Arabidopsis thaliana", "settings": "ABA 0.5 μM or above", "procedure": "as §4, §6"}, "[8]": {"system": "35S-ABF4 transgenic plants (line A405)", "experiment": "ABA dose-response of root growth", "type": "in vivo", "settings": "Arabidopsis thaliana, 120 h, root elongation 5 days after transfer, read-out: root growth, % of control rate", "procedure": "as §4, §5"}, "[9]": {"system": "35S-ABF3 transgenic plants (line A319)", "experiment": "ABA dose-response of root growth", "type": "in vivo", "settings": "Arabidopsis thaliana, 120 h, root elongation 5 days after transfer, read-out: root growth, % of control rate", "procedure": "as §4, §5"}, "[10]": {"system": "35S-ABF4 transgenic plants (line A405)", "experiment": "ABA dose-response of germination", "type": "in vivo, Arabidopsis thaliana", "settings": "0.5 μM ABA, fully emerged radicles counted after 3 days", "procedure": "as §4, §5"}, "[11]": {"system": "wild type plants (Ler)", "experiment": "ABA dose-response of germination", "type": "in vivo, Arabidopsis thaliana", "settings": "0.5 μM ABA, fully emerged radicles counted after 3 days", "procedure": "as §4, §5"}, "[12]": {"system": "35S-ABF3 transgenic plants (line A319)", "experiment": "ABA dose-response of germination", "type": "in vivo, Arabidopsis thaliana", "settings": "0.5 μM ABA, fully emerged radicles counted after 3 days", "procedure": "as §4, §5"}, "[13]": {"system": "35S-ABF transgenic lines", "experiment": "Glucose response of seedlings", "type": "in vivo, Arabidopsis thaliana", "settings": "3% mannitol; both wild type and 35S-ABF transgenic plants", "procedure": "as §1\nPlants were grown at 22° C. under long day condition (16 hr light/8 hr dark cycle) aseptically or on soil. For soil growth, seeds were sown on 1:1:1 mixture of vermiculite, perlite and peat moss irrigated with 0.1% Hyponex, placed at 4° C. for 4 days in the dark to break residual dormancy, and transferred to normal growth conditions. Unless otherwise stated, the plants were watered once a week. […]"}}}
{"smiles": "NC1(C(=O)O)CC1", "note": "[ACC, 1-aminocyclopropane-1-carboxylic acid]", "values": [{"measurement": "difference in growth response between 35S-ABF and wild type plants", "setting": "[1]", "result": "did not see any differences"}]}
{"smiles": "O=C(O)Cc1c[nH]c2ccccc12", "note": "[IAA, indole-3-acetic acid]", "values": [{"measurement": "difference in growth response between 35S-ABF and wild type plants", "setting": "[1]", "result": "did not see any differences"}]}
{"smiles": "[Cl-].[Na+]", "note": "[NaCl]", "values": [{"measurement": "germination and growth", "setting": "[2]; 100 mM NaCl", "result": "significantly affected"}, {"measurement": "germination", "setting": "[3]", "result": "not affected"}]}
{"smiles": "CC1=CC(=O)CC(C)(C)[C@@]1(O)/C=C/C(C)=C\\C(=O)O", "note": "[ABA, abscisic acid]", "values": [{"measurement": "root growth", "setting": "[4]", "result": "almost completely arrested"}, {"measurement": "root growth", "setting": "[5]; ABA concentration above 5 μM", "result": "still continued to grow"}, {"measurement": "activity at 0.5 µM", "setting": "[5]; Arabidopsis thaliana, 120 h, 0.5 μM ABA, root elongation 5 days after transfer, read-out: root growth, % of control rate", "result": 84, "unit": "%"}, {"measurement": "activity at 1 µM", "setting": "[5]; Arabidopsis thaliana, 120 h, 1 μM ABA, root elongation 5 days after transfer, read-out: root growth, % of control rate", "result": 62, "unit": "%"}, {"measurement": "growth after radicle emergence", "setting": "[6]", "result": "continued to grow and develop"}, {"measurement": "growth after radicle emergence", "setting": "[7]", "result": "completely arrested"}, {"measurement": "activity at 0.5 µM", "setting": "[8]; 0.5 μM ABA", "result": 35, "unit": "%"}, {"measurement": "activity at 1 µM", "setting": "[8]; 1 μM ABA", "result": 6, "unit": "%"}, {"measurement": "activity at 0.5 µM", "setting": "[9]; 0.5 μM ABA", "result": 51, "unit": "%"}, {"measurement": "activity at 1 µM", "setting": "[9]; 1 μM ABA", "result": 37, "unit": "%"}, {"measurement": "germination efficiency", "setting": "[10]", "result": 28, "unit": "%"}, {"measurement": "germination", "setting": "[11]", "result": 80, "unit": "%"}, {"measurement": "germination efficiency", "setting": "[12]", "result": 8, "unit": "%"}]}
{"smiles": "OC[C@@H](O)[C@@H](O)[C@H](O)[C@H](O)CO", "note": "[mannitol]", "values": [{"measurement": "response of germination/seedling growth", "setting": "[2]; mannitol, same or twice the concentration (100 mM)", "result": "normal"}, {"measurement": "growth inhibition", "setting": "[13]", "result": "significantly but similarly"}]}
